{"source": "paper PMC9312958", "about": "“A Novel and Selective Dopamine Transporter Inhibitor, (S)-MK-26, Promotes Hippocampal Synaptic Plasticity and Restores Effort-Related Motivational Dysfunctions” (Biomolecules, 2022)", "key": {"hSERT": {"target": "T1, hSERT (Homo sapiens, UniProt P31645)", "T1 construct": "expressed in transfected cells", "T1 sequence (P31645 whole entry)": "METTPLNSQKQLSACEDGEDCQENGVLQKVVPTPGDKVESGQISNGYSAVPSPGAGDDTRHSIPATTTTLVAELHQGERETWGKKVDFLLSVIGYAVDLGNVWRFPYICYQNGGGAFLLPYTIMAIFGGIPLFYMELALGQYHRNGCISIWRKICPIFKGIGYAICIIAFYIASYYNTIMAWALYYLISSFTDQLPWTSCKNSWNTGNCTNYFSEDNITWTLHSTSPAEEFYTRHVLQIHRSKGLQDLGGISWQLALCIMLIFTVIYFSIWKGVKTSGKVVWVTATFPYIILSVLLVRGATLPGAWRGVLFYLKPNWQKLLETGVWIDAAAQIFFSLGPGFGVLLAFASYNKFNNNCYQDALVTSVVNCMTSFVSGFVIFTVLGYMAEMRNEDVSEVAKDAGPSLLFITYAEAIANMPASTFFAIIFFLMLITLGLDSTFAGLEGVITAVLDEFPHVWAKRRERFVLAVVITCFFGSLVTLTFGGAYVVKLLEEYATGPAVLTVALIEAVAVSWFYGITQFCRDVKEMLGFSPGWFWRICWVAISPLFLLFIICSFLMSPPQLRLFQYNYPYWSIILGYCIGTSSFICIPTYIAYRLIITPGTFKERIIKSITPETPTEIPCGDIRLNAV", "experiment": "Uptake inhibition assay in HEK293 cells expressing hSERT", "type": "cell-based", "experimental": "(§1) Human embryonic kidney 293 cells (HEK293 cells) were cultivated in Dulbecco’s Modified Eagle Medium (DMEM), containing 10% heat-inactivated fetal calf serum (FCS; 100 mL/L), streptomycin (100 μg/100 mL) and penicillin ([…]). Geneticin (50 μg/mL) was added to select cells stably expressing the human isoforms of dopamine, norepinephrine and serotonin transporter (hDAT, hNET, and hSERT, respectively) as described earlier. Cell lines were maintained in culture in humidified atmosphere (37 °C, 5% CO2), and passaged when reached 80–90% confluency. Cells expressing the desired transporter were seeded the day before the experiment (40,000 cells per well) or two days before the experiments (20,000 cells per well) onto poly-D-lysine (PDL)-coated 96-well plates.\nUptake inhibition experiments were carried out as reported previously. […] Thereafter, 200 μL of Ultima Gold^TM XR scintillation cocktail (PerkinElmer, MA, USA) was added, the plates were shaken and the radioactivity accumulated into the cells determined in a Wal-lac 1450 MicroBeta TriLux Liquid Scintillation Counter & Lumi (GMI, Ramsey, MN, USA). Non- specific tritiated substrate uptake was measured in the presence of 100 μM cocaine (for hDAT and hNET) or 10 μM paroxetine (for hSERT), and subtracted from the data. […]"}, "hNET": {"target": "T2, hNET (Homo sapiens, UniProt P23975)", "T2 construct": "expressed in transfected cells", "T2 sequence (P23975 whole entry)": "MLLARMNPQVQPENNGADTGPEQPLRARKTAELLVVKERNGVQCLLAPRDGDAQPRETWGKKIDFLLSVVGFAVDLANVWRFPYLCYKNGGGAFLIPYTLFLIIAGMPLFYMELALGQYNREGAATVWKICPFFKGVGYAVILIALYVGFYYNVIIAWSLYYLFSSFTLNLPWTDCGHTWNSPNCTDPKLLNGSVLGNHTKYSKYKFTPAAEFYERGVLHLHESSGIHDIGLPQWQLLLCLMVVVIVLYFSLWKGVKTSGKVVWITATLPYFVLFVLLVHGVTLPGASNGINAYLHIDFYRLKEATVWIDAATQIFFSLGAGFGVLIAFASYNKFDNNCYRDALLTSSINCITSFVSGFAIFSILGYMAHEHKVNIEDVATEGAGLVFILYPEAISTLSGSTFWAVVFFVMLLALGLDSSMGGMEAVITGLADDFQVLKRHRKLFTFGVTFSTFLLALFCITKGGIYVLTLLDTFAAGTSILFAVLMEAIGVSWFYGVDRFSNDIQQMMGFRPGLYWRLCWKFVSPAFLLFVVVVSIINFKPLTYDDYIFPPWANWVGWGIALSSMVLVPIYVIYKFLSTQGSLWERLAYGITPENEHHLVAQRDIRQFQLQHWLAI", "experiment": "Uptake inhibition assay in HEK293 cells expressing hNET", "type": "cell-based", "experimental": "as §1\n(§2) Uptake inhibition experiments were carried out as reported previously. Ninety-six-well plates containing hDAT-, hNET- or hSERT-expressing cells were washed with Krebs-HEPES buffer (KHB; 25 mM HEPES, 120 mM NaCl, 5 mM KCl, 1.2 mM CaCl2, and 1.2 mM MgSO4 and 5 mM D-glucose, pH = 7.3). Cells were then preincubated with increasing concentrations of the compound diluted in KHB for 6 min. Following the pre-incubation of the cells with the compound, the tritiated substrate (hDAT: 0.15 μM [^3H]DA; hNET: 0.05 μM [^3H]MPP^+; hSERT: 0.1 μM [^3H]5-HT) was added to the wells. The uptake was terminated by removal of tritiated substrate and by washing the cells with ice-cold KHB after 1 min (for hDAT and hSERT) or 3 min (for hNET). Thereafter, 200 μL of Ultima Gold^TM XR scintillation cocktail (PerkinElmer, MA, USA) was added, the plates were shaken and the radioactivity accumulated into the cells determined in a Wal-lac 1450 MicroBeta TriLux Liquid Scintillation Counter & Lumi (GMI, Ramsey, MN, USA). Non- specific tritiated substrate uptake was measured in the presence of 100 μM cocaine (for hDAT and hNET) or 10 μM paroxetine (for hSERT), and subtracted from the data. Uptake in the presence of test drugs was normalized to the uptake in the presence of the vehicle."}, "hDAT": {"target": "T3, hDAT (Homo sapiens, UniProt Q01959)", "T3 construct": "expressed in transfected cells", "T3 sequence (Q01959 whole entry)": "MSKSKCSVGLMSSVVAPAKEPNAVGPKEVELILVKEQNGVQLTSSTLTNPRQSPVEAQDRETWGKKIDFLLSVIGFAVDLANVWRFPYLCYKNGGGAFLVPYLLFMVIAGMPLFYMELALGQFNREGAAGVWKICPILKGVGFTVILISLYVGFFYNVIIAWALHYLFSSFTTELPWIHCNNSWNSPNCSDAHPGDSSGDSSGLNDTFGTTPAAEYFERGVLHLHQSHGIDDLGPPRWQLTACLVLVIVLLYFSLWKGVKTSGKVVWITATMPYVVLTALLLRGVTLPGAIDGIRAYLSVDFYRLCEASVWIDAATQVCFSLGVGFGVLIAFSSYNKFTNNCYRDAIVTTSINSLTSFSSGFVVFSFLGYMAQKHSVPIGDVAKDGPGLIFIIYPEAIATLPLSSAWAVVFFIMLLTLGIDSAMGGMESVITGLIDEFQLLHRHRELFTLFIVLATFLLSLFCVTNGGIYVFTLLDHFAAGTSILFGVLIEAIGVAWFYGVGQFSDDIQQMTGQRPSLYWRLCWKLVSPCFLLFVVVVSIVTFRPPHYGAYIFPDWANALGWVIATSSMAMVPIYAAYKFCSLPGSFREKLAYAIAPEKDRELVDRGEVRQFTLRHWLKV", "experiment": "Uptake inhibition assay in HEK293 cells expressing hDAT", "type": "cell-based", "experimental": "as §1, §2"}, "DAT": {"test_system": "DAT", "design": "method as in PMID 16885432", "conditions": "read-out: IC50, DAT-inhibiting power; cited from earlier work"}, "[1]": {"test_system": "adult male Sprague Dawley rats", "experiment": "FR5/chow feeding choice task", "type": "in vivo, rat", "conditions": "1.0 mg/kg TBZ plus vehicle vs vehicle plus vehicle", "experimental": "Pharmacological agents: (S)-MK-26 was obtained from the Lubec Laboratory (University of Vienna, Austria) and dissolved in dimethyl sulfoxide (DMSO) (10%), Tween 80 (15%), and 0.9% saline (75%). The DMSO/Tween 80/saline mixture was administered as the vehicle control. The dose range was selected as 3.75–45.0 mg/kg based on its DAT affinity and pilot studies. It was administered 30 min before testing. TBZ (9,10-dimethoxy3-(2-methylpropyl)-1,3,4,6,7, 11b hexahydrobenzo[a]quinolizin2-one) was obtained from Tocris Bioscience (Ellisville, MO) and was dissolved in DMSO (20%) and 0.9% saline (80%) and was titrated with 1.0 N HCl until the drug was dissolved at a pH of 4.0–4.5. The DMSO/saline solution with equal amounts of HCl was administered as the vehicle control. The selected dose was 1.0mg/kg based on the previous research from our laboratory. It was administered 120 min prior to testing.\nFR5/chow feeding choice task: A total of 8 adult male Sprague Dawley rats (Envigo Sprague Dawley, Indianapolis, IN, USA; weights 275–299 g upon arrival) were pair-housed in a colony maintained at 23 °C, with a 12 h light/dark cycle (lights on 07:00). Rats were food deprived to 85% of their free-feeding body weight with modest growth throughout the experiment and water was available ad libitum in their home cages. All the animal protocols were approved by the University of Connecticut Institutional Animal Care and Use Committee, and the experiments were completed according to National Institutes of Health guidelines.\nBehavioral sessions were conducted in operant chambers (28 × 23 × 23 cm^3; Med Associates, Fairfax, VT, USA) with 30 min sessions 5 days/week. Rats were initially trained to lever press on magazine training for 3 days, followed by an FR1 schedule for 3 days (high-carbohydrate 45-mg pellets, Bio-Serv, Frenchtown, NJ, USA), and then moved to the FR5 schedule. After 5 weeks of training on the FR5 schedule, lab chow was introduced as the concurrently available choice food (Laboratory Diet, 5P00 Prolab RMH 3000, Purina Mills, St. Louis, MO, USA; typically 15–20 g). At the end of each session, rats were immediately removed from the chambers. The number of lever pressing was recorded and the amount of consumed chow was calculated by weighing the remaining food, including spillage. Rats were trained on the FR5/chow feeding choice task for 5 weeks, after which drug testing began.\nTo test the effects of (S)-MK-26 on FR5/Chow feeding choice task, trained rats were administered either with TBZ (1.0 mg/kg) or vehicle 120 min before testing, and (S)-MK-26 also with doses of 15.0, 30.0, 45.0 mg/kg or vehicle 30 min before testing, via intraperitoneal (IP) injections on drug testing days. A repeated-measures design was utilized where each rat received each drug treatment in a randomly varied order, once per week. The following five treatment combinations were given: TBZ vehicle + (S)-MK-26 vehicle; 1.0 mg/kg TBZ + (S)-MK-26 vehicle; 1.0 mg/kg TBZ + 15.0 mg/kg (S)-MK-26; 1.0 mg/kg TBZ + 30.0 mg/kg (S)-MK-26; 1.0 mg/kg TBZ + 45.0 mg/kg (S)-MK-26. Next, to see if the effects of lower doses, the following four treatment combinations were given in a repeated measure design: TBZ vehicle + (S)-MK-26 vehicle; 1.0 mg/kg TBZ + (S)-MK-26 vehicle; 1.0 mg/kg TBZ + 3.75 mg/kg (S)-MK-26; 1.0 mg/kg TBZ + 7.5 mg/kg (S)-MK-26."}}, "data": [{"smiles": "[O-][S@+](Cc1cncs1)C(c1cccc(Cl)c1)c1cccc(Cl)c1", "note": "[(R)-MK-26, (R)-5-(((bis(3-chlorophenyl)methyl)sulphinyl)methyl)thiazole]", "values": [{"measurement": "IC50", "setting": "hSERT", "result": "> 1000", "unit": "µM"}, {"measurement": "IC50", "setting": "hNET", "result": 2160, "unit": "µM"}, {"measurement": "IC50", "setting": "hDAT", "result": 36.3, "unit": "µM"}]}, {"smiles": "NC(=O)C[S+]([O-])C(c1ccccc1)c1ccccc1", "note": "(racemic) [modafinil]", "values": [{"measurement": "IC50", "setting": "DAT", "result": "[…]"}]}, {"smiles": "NC(=O)C[S@@+]([O-])C(c1ccccc1)c1ccccc1", "note": "[(R)-Modafinil, reference compound]", "values": [{"measurement": "IC50", "setting": "hNET", "result": 127, "unit": "µM"}]}, {"smiles": "COc1cc2c(cc1OC)C1CC(=O)C(CC(C)C)CN1CC2", "note": "(stereo not shown) [TBZ, 9,10-dimethoxy3-(2-methylpropyl)-1,3,4,6,7, 11b hexahydrobenzo[a]quinolizin2-one, reference compound]", "values": [{"measurement": "effect on chow intake", "setting": "[1]", "result": "increasing chow intake"}, {"measurement": "effect on lever pressing", "setting": "[1]", "result": "decreasing lever pressing"}]}]}
